Structures can show the parent of a compound that is named as a salt.
Tests used:
[1] = target: T1, mouse full-length Src protein (Mus musculus, UniProt P05480); assay: IC50 determination for inhibitors of Src kinase (IMAP fluorescence polarization); format: biochemical; conditions: 24 uM ATP, 37° C., 60 minutes; read-out: IC50 Src kinase inhibition
T1 construct: mouse full-length Src protein
Method: Src assay was done using mouse full-length Src protein, fluorescein labeled peptide substrate (with a sequence of KVEKIGEGTYGVVYK) and quantified by Molecular Devices' IMAP fluorescence polarization technology. Compounds were tested in serially diluted concentrations in 384 well plates. Kinase reaction was performed in KAB Buffer (10 mM HEPES, pH 7, 50 mM NaCl, 5 mM MgCl2, 1 mM DTT, 0.1 mM NaVO4, 0.02% BSA), in the presence of 24 uM ATP, incubated at 37° C. for 60 minutes. Reaction was stopped by IMAP bead mix (at 1:400 dilution). After incubation at room temperature for 2 hours, the reaction product was analyzed on LJL Acquest (excitation 485 nm and Emission 530 nm).
(§1) FP reading (in mP) was used to calculate reaction rate. The assay was semi-automated by Tomtec Quadra workstation.

[2] = target: human recombinant PDGFR beta (Homo sapiens, UniProt P09619); assay: IC50 determination for inhibitors of PDGFR kinase (IMAP fluorescence polarization); format: biochemical; conditions: 48 uM ATP, room temperature, 60 minutes, read-out: IC50 PDGFR kinase inhibition
Sequence of human recombinant PDGFR beta (P09619 33-1106): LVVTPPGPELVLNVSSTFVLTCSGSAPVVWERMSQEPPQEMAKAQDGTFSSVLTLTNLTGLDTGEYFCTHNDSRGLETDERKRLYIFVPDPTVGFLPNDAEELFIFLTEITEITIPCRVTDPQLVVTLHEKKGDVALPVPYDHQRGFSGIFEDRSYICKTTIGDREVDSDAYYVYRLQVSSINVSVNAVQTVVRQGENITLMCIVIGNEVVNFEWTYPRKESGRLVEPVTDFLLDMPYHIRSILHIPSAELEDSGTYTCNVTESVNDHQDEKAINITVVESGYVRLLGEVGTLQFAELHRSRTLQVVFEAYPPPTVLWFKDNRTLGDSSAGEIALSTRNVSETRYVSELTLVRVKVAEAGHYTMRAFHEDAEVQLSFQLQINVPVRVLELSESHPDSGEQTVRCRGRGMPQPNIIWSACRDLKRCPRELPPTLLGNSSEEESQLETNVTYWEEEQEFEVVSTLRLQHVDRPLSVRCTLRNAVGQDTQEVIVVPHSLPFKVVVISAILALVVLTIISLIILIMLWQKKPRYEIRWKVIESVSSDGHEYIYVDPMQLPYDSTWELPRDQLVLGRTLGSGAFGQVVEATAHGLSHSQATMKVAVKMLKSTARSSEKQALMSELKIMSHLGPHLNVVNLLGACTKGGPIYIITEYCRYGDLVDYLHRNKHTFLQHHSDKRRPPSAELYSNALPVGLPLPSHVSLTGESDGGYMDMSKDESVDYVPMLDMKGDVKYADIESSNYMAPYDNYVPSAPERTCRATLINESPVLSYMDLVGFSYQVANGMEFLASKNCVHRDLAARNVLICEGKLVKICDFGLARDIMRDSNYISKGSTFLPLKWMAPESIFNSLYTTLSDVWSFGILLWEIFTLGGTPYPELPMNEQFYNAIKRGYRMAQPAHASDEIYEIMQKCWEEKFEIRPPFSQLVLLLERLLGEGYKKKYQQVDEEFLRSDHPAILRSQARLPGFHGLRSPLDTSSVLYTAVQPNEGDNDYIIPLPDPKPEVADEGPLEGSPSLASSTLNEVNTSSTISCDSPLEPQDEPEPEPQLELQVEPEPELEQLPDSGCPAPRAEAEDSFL
Method: PDGFR assay was carried out with human recombinant PDGFR beta, fluorescein labeled peptide substrate (with a peptide sequence of ALTSNQEYLDLSMPL) and test compounds (in serial dilution) using 384-well plates. Kinase reaction was performed in MOPS buffer (20 mM MOPS pH 7.1, 5 mM Sodium Acetate, 6.25 mM MgCl2, 0.5 mM EDTA, 1 mM DTT, 0.04 mM NaVO4, 0.02% BSA), in the presence of 48 uM ATP, incubated at room temperature for 60 minutes. Reaction was stopped by IMAP Bead Binding System (Molecular Devices). After incubation at room temperature for 2 hours, the reaction product was analyzed on LJL Acquest.
as §1

[3] = test system: HCT 116 cells; assay: CellTiter-Glo assay in HCT 116 cells (antiproliferative activity); format: cell-based; conditions: Homo sapiens, HCT-116, 120 h, cell viability after 5 days
Method: The CellTiter-Glo™ Luminescent Cell Viability Assay (Promega) is a homogeneous method of determining the number of viable cells in culture based on quantitation of the ATP present, which signals the presence of metabolically active cells.
HCT 116 cells (human colon carcinoma, ATCC-No. CCl-247) were cultivated in RPMI 1640 medium with GlutaMAX™ 1 (Invitrogen, Cat-No. 61870-010), 5% Fetal Calf Serum (FCS, Sigma Cat-No. F4135 (FBS)); 100 Units/ml penicillin/100 μg/ml streptomycin (=Pen/Strep from Invitrogen Cat. No. 15140). For the assay the cells were seeded in 384 well plates, 1000 cells per well, in the same medium. The next day the test compounds were added in various concentrations ranging from 30 μM to 0.0015 μM (10 concentrations, 1:3 diluted). After 5 days the CellTiter-Glo™ assay was done according to the instructions of the manufacturer (CellTiter-Glo™ Luminescent Cell Viability Assay, from Promega). In brief: the cell-plate was equilibrated to room temperature for approximately 30 minutes and than the CellTiter-Glo™ reagent was added. The contents were carefully mixed for 15 minutes to induce cell lysis. After 45 minutes the luminescent signal was measured in Victor 2, (scanning multiwell spectrophotometer, Wallac).
• Medium: RPMI 1640 with GlutaMAX™ 1 (Invitrogen, Cat-No. 61870), 5% FCS (Sigma Cat.-No. F4135), Pen/Strep (Invitrogen, Cat No. 15140). • HCT116 (ATCC-No. CCl-247): 1000 cells in 60 μl per well of 384 well plate (Greiner 781098, μClear-plate white) • After seeding incubate plates 24 h at 37° C., 5% CO2 2nd. Day: Induction (Treatment with Compounds, 10 Concentrations):
In order to achieve a final concentration of 30 μM as highest concentration 3.5 μl of 10 mM compound stock solution were added directly to 163 μl media. Then step e) of the dilution procedure described below, was followed.

[4] = target: T2, fusion protein corresponding to mouse Abl (27-end) (Mus musculus, UniProt P00520); assay: IC50 determination for inhibitors of Abl kinase (IMAP fluorescence polarization); format: biochemical; conditions: 22.8 uM ATP, 37° C., 60 minutes; read-out: IC50 Abl kinase inhibition
T2 construct: fusion protein corresponding to mouse Abl (27-end)
T2 sequence (P00520 27-1123 limits assumed): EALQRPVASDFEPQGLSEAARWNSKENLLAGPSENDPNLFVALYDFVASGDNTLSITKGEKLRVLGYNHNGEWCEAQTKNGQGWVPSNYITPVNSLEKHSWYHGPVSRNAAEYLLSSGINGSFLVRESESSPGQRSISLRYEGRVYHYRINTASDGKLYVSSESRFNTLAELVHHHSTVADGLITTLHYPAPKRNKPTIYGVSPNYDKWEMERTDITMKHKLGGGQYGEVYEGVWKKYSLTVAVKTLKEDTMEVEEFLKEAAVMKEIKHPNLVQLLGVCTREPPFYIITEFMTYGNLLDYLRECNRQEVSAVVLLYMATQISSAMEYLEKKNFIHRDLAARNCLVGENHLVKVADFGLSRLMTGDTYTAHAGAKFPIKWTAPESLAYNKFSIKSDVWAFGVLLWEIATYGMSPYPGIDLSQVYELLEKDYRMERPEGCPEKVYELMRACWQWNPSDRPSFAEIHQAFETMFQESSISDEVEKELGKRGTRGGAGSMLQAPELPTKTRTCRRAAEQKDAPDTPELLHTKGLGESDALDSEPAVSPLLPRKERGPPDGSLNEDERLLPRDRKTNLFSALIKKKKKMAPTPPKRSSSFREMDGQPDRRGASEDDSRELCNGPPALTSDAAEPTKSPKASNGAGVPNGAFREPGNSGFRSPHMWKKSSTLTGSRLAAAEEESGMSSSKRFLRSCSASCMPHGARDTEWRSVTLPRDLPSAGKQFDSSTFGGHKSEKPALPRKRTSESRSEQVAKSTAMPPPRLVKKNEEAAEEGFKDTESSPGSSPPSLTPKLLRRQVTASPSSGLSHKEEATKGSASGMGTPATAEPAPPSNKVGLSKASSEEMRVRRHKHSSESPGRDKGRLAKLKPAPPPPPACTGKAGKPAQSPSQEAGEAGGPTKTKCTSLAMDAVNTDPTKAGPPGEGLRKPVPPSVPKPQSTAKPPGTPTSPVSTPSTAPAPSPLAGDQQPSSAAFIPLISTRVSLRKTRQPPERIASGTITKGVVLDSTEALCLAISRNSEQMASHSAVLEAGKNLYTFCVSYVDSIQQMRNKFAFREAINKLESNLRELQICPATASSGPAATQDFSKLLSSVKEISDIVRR
Method: Abl assay was done using fusion protein corresponding to mouse Abl (27-end), fluorescein labeled peptide substrate (with a sequence of EAIYAAPFAKKK) and quantified by Molecular Devices' IMAP fluorescence polarization technology. Compounds were tested in serially diluted concentrations in 384 well plates. Kinase reaction was performed in KAB Buffer (10 mM HEPES, pH 7, 50 mM NaCl, 5 mM MgCl2, 1 mM DTT, 0.1 mM NaVO4, 0.02% BSA), in the presence of 22.8 uM ATP, incubated at 37° C. for 60 minutes. Reaction was stopped by IMAP bead mix (at 1:400 diluted). After incubation at room temperature for 3 hours, the reaction product was analyzed on LJL Acquest (excitation 485 nm and Emission 530 nm).
FP reading (in mP) was used to calculate reaction rate. The assay was semi automated by Tomtec Quadra workstation.

T1 sequence (P05480 whole entry): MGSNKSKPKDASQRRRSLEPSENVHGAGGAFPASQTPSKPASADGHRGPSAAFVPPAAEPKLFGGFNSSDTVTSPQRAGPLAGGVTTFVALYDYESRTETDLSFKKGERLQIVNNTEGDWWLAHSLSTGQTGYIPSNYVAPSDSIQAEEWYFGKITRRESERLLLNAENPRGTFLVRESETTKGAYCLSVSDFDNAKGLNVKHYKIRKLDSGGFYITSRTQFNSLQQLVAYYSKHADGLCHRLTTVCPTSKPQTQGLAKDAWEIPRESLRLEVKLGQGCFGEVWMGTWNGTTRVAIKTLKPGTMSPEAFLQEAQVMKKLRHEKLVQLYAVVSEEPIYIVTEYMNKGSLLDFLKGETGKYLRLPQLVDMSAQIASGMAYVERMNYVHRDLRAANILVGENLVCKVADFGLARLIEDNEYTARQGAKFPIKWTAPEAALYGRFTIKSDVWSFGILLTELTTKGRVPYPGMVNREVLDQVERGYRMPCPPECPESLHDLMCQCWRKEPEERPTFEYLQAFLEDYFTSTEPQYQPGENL

Row | IC50 [1] | IC50 [2] | IC50 [3] | IC50 [4] | SMILES
1 | 5 to 1000 nM | 10 to 1000 nM | 1810 nM | 5 to 1000 nM | CN(C)CCOc1cccc(-c2ccc(C(=O)Nc3ccc(Cl)c(C(=O)Nc4cnc5[nH]ccc5c4)c3)cc2)c1 [Example 1-1]
2 | – | – | 100 to 10000 nM | – | CC(Sc1cccc(-c2ccc(C(=O)Nc3ccc(Cl)c(C(=O)Nc4cnc5[nH]ccc5c4)c3)cc2)c1)C(N)=O (stereo not drawn) [Example 1-2, 3′-(1-Carbamoyl-ethylsulfanyl)-biphenyl 4 carboxylic acid [4-chloro 3 (1H-pyrrolo[2,3-b]pyridin-5-ylcarbamoyl)-phenyl]-amide]
3 | 5 to 1000 nM | 14 nM | 100 to 10000 nM | 5 to 1000 nM | O=C(Nc1ccc(Cl)c(C(=O)Nc2cnc3[nH]ccc3c2)c1)c1cccc(-c2ccccc2)c1 [Example 2-1, Biphenyl-3-carboxylic acid[4-chloro-3-(1H-pyrrolo[2,3-b]pyridin-5-ylcarbamoyl)-phenyl]-amide]
4 | 5 to 1000 nM | 10 to 1000 nM | 100 to 10000 nM | 63 nM | O=C(Nc1ccc(Cl)c(C(=O)Nc2cnc3[nH]ccc3c2)c1)c1ccc(-c2ccccc2)cc1 [Example 2-2, Biphenyl-4-carboxylic acid [4-chloro-3-(1H-pyrrolo[2,3-b]pyridin-5-ylcarbamoyl)-phenyl]-amide]
5 | 5 to 1000 nM | – | – | – | Cc1n[nH]c(C)c1-c1ccccc1C(=O)Nc1ccc(Cl)c(C(=O)Nc2cnc3[nH]ccc3c2)c1 [Example 3-1]
6 | – | – | 100 to 10000 nM | 5 to 1000 nM | O=C(Nc1ccc(Cl)c(C(=O)Nc2cnc3[nH]ccc3c2)c1)c1cc(-c2ccccc2Cl)no1 [Example 4-1, 3-(2-Chloro-phenyl)-isoxazole-5-carboxylic acid[4-chloro-3-(1H-pyrrolo[2,3-b]pyridin-5-ylcarbamoyl)-phenyl]-amide]
7 | 5 to 1000 nM | – | – | 5 to 1000 nM | Cc1c(C(=O)Nc2ccc(Cl)c(C(=O)Nc3cnc4[nH]ccc4c3)c2)cnn1-c1ccccc1 [Example 4-2, 5-Methyl-1-phenyl-1H-pyrazole-4-carboxylic acid [4-chloro-3-(1H-pyrrolo[2,3-b]pyridin-5-ylcarbamoyl)-phenyl]-amide]
8 | 5 to 1000 nM | – | 100 to 10000 nM | 5 to 1000 nM | O=C(Nc1ccc(Cl)c(C(=O)Nc2cnc3[nH]ccc3c2)c1)c1cccc(N2CCOCC2)c1 [Example 4-3, 2-Chloro-5-(3-morpholin-4-yl-benzoylamino)-N-(1H-pyrrolo[2,3-b]pyridin-5-yl)-benzamide]
9 | – | – | 100 to 10000 nM | – | COc1ccccc1/C=C/C(=O)Nc1ccc(Cl)c(C(=O)Nc2cnc3[nH]ccc3c2)c1 [Example 4-4, 2-Chloro-5-[(E)-3-(2-methoxy-phenyl)-acryloylamino]-N-(1H-pyrrolo[2,3-b]pyridin-5-yl)-benzamide]
10 | – | – | 100 to 10000 nM | 5 to 1000 nM | CC(C)(C#N)c1cccc(C(=O)Nc2ccc(Cl)c(C(=O)Nc3cnc4[nH]ccc4c3)c2)c1 [Example 4-6, 2-Chloro-5-[3-(cyano-dimethyl-methyl)-benzoylamino]-N-(1H-pyrrolo[2,3-b]pyridin-5-yl)-benzamide]
11 | – | – | 100 to 10000 nM | – | COc1ccc([C@H]2C[C@@H]2C(=O)Nc2ccc(Cl)c(C(=O)Nc3cnc4[nH]ccc4c3)c2)cc1 [Example 4-7, 2-Chloro-5-{[(1S,2S)-2-(4-methoxy-phenyl)-cyclopropanecarbonyl]-amino}-N-(1H-pyrrolo[2,3-b]pyridin-5-yl)-benzamide]
12 | 10 nM | – | – | 5 to 1000 nM | Cc1ccc(NC(=O)c2ccccc2)cc1C(=O)Nc1cnc2[nH]cnc2c1 [Example 6-1, 5-benzoylamino-N-(3H-imidazo[4,5-b]pyridin-6-yl)-2-methyl-benzamide]
13 | 5 to 1000 nM | 1120 nM | – | – | Cc1ccc(NC(=O)c2cccc(-c3ccccc3)c2)cc1C(=O)Nc1cnc2[nH]cnc2c1 [Example 6-2, Biphenyl-3-carboxylic acid [3-(3H-imidazo[4,5-b]pyridin-6-ylcarbamoyl)-4-methyl-phenyl]-amide]
14 | 5 to 1000 nM | – | – | – | Cc1ccc(NC(=O)c2ccc(-c3ccccc3)cc2)cc1C(=O)Nc1cnc2[nH]cnc2c1 [Example 6-3, Biphenyl-4-carboxylic acid [3-(3H-imidazo[4,5-b]pyridin-6-ylcarbamoyl)-4-methyl-phenyl]-amide]
15 | 5 to 1000 nM | 10 to 1000 nM | – | 831 nM | O=C(Nc1ccc(N2CCOCC2)cc1)c1ccc(Cl)c(C(=O)Nc2cnc3[nH]ccc3c2)c1 [Example 7-1, 4-Chloro-N^1-(4-morpholin-4-yl-phenyl)-N^3-(1H-pyrrolo[2,3-b]pyridin-5-yl)-isophthalamide]
16 | – | – | 100 to 10000 nM | – | O=C(Nc1ccc(Oc2ccccc2)nc1)c1ccc(Cl)c(C(=O)Nc2cnc3[nH]ccc3c2)c1 [Example 8-1, 4-Chloro-N^1-(6-phenoxy-pyridin-3-yl)-N^3-(1H-pyrrolo[2,3-b]pyridin-5-yl)-isophthalamide hydrochloride]
17 | – | – | 100 to 10000 nM | – | O=C(Nc1nc2c(c(C(F)(F)F)n1)CCCC2)c1ccc(Cl)c(C(=O)Nc2cnc3[nH]ccc3c2)c1 [Example 8-2, 4-Chloro-N^3-(1H-pyrrolo[2,3-b]pyridin-5-yl)-N^1-(4-trifluoromethyl-5,6,7,8-tetrahydro-quinazolin-2-yl)-isophthalamide hydrochloride]
18 | – | – | 100 to 10000 nM | – | O=C(N[C@H]1C[C@@H]1c1ccccc1)c1ccc(Cl)c(C(=O)Nc2cnc3[nH]ccc3c2)c1 [Example 8-3, 4-Chloro-N^1-((1S,2R)-2-phenyl-cyclopropyl)-N^3-(1H-pyrrolo[2,3-b]pyridin-5-yl)-isophthalamide hydrochloride]
19 | – | – | 100 to 10000 nM | – | O=C(Nc1cccc(-n2cccn2)c1)c1ccc(Cl)c(C(=O)Nc2cnc3[nH]ccc3c2)c1 [Example 8-5, 4-Chloro-N^1-(3-pyrazol-1-yl-phenyl)-N^3-(1H-pyrrolo[2,3-b]pyridin-5-yl)-isophthalamide hydrochloride]
20 | – | – | 100 to 10000 nM | – | CC(C)(C#N)c1cccc(NC(=O)c2ccc(Cl)c(C(=O)Nc3cnc4[nH]ccc4c3)c2)c1 [Example 8-7, 4-Chloro-N^1-[3-(cyano-dimethyl-methyl)-phenyl]-N^3-(1H-pyrrolo[2,3-b]pyridin-5-yl)-isophthalamide hydrochloride]
21 | – | – | 100 to 10000 nM | – | CN1C(=O)CSc2cc(NC(=O)c3ccc(Cl)c(C(=O)Nc4cnc5[nH]ccc5c4)c3)ccc21 [Example 8-8, 4-Chloro-N^1-(4-methyl-3-oxo-3,4-dihydro-2H-benzo[1,4]thiazin-7-yl)-N^3-(1H-pyrrolo[2,3-b]pyridin-5-yl)-isophthalamide hydrochloride]

Row | SMILES | IC50 [1] | IC50 [2] | IC50 [3] | IC50 [4]
22 | CC(C)(C)Oc1ccc(C(=O)Nc2ccc(Cl)c(C(=O)Nc3cnc4[nH]ccc4c3)c2)cc1 [Example 4-5, 5-(4-tert-Butoxy-benzoylamino)-2-chloro-N-(1H-pyrrolo[2,3-b]pyridin-5-yl)-benzamide] | 5 to 1000 nM | – | 380 nM | 5 to 1000 nM

Source: patent US8067599B2 (Hoffman-La Roche Inc., priority 2006, dated 2011)
